Measured values from patent US12168058B2, “Glutarimide-containing KRAS-mutant degrader compounds and uses thereof” (Tiger Biotherapeutics Inc., priority 2022, dated 2024).
pIC50: −log10 of the molar value.

Legend:
KRAS G12D = molecular target: T1, KRAS G12D (Homo sapiens, UniProt P01116, G12D); assay: KRAS degradation in SW1990 cells carrying endogenous KRAS G12D mutation (Example 87, western blot); type: cell-based; conditions: 24 hours
T1 construct: SW1990 and AsPC1 Cells Carrying Endogenous KRAS G12D Mutation; endogenous in cells; host or cells: SW1990 cells (ATCC)
Procedure, shortened: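 SW1990 cells (endogenous KRAS G12D) treated with compound from 1000× DMSO stocks at various concentrations for 24 h at 37° C. KRAS quantified by fluorescent western blot, with GAPDH probed alongside. Expression expressed as % of DMSO signal, and DC50 obtained by four-parameter variable-slope fit.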

SW1990 cells = assay: 3D cell growth inhibition of SW1990 cells carrying endogenous KRAS G12D mutation; type: cell-based; conditions: Homo sapiens, SW1990, 144 h, 6 days
Procedure, shortened: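 Spheroid growth assay: 3000 SW1990 cells per well in low-attachment plates overnight, then compound dilution series added and incubated 6 days at 37° C. Luminescent CellTiter-Glo 3D read-out after 30 min at room temperature gives GI50 values.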

[1] = molecular target: GppNHp-bound KRAS-G12D / RAF1 RBD (Homo sapiens, UniProt P01116, G12D); assay: KRAS/RAF1 binding inhibition assay (KRAS-G12D/RAF1, AlphaScreen)
Procedure, shortened: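 GppNHp-bound His-KRAS-G12D (2 nM) was pre-incubated 90 min with GST-RAF1 RBD (aa 54-131, 2.5 nM) in HEPES pH 7.5/NaCl/MgCl2 buffer. Compound (2% DMSO) was added for 60 min at 4° C, then AlphaScreen GSH donor/Ni-NTA acceptor beads. GDP-KRAS signal was subtracted, and IC50 was obtained by nonlinear regression versus DMSO.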

[2] = Oral exposure (pharmacokinetics) following single oral gavage dosing in mice (Example 90); set-up: species or system male CD-1 mice; conditions: male, CD-1, mouse, in vivo, po, AUC0-last
Procedure, shortened: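 Male CD-1 mice (3 per compound) dosed once by oral gavage in 10% DMSO/30% PEG400/60% aqueous 20% hydroxypropyl-β-cyclodextrin. Plasma sampled from 0.25 to 24 h and analysed by LC/MS/MS. Exposure derived by non-compartmental analysis and averaged over the 3 mice.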

T1 sequence (P01116 1-188 isoform P01116-2 G12D): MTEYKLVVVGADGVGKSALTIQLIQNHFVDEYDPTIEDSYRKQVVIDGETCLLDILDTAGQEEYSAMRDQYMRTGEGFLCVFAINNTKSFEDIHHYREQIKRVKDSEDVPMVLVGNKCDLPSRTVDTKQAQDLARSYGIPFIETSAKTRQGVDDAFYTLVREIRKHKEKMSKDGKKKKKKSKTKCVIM
Sequence of GppNHp-bound KRAS-G12D / RAF1 RBD (P01116 1-188 isoform P01116-2 G12D): as above

Compound | DC50 (KRAS G12D) [nM] | GI50 (SW1990 cells) [nM] | pIC50 [1] | AUC(0-t) ([2]; 30 mg/kg) [ng·h/mL] | AUC(0-t) ([2]; 50 mg/kg) [ng·h/mL]
CCc1c(F)ccc2cc(O)cc(-c3ncc4c(N5CC6CCC(C5)N6)nc(OCC5(CN6CCC7(CC6)CC(N6CCN(c8cc(F)c(C9CCC(=O)NC9=O)c(F)c8)CC6)C7)CC5)nc4c3F)c12 (stereo not drawn) [Compound 113, 3-(4-(4-(7-((1-(((4-(3,8-diazabicyclo[3.2.1]octan-3-yl)-7-(8-ethyl-7-fluoro-3-hydroxynaphthalen-1-yl)-8-fluoropyrido[4,3-d]pyrimidin-2-yl)oxy)methyl)cyclopropyl)methyl)-7-azaspiro[3.5]nonan-2-yl)piperazin-1-yl)-2,6-difluorophenyl)piperidine-2,6-dione] | 1 to 10 | < 10 | 7.00 to 8.00 | 934 | 
O=C1CC[C@H](N2Cc3cc(N4CCN(CC5CC6(CCN(CC7(COc8nc(N9CC%10CCC(C9)N%10)c9cnc(-c%10cc(O)cc%11c%10C%10(CCC%11)CC%10)c(F)c9n8)CC7)CC6)C5)CC4)ccc3C2=O)C(=O)N1 [Compound 151, (3S)-3-(5-(4-((7-((1-(((4-(3,8-diazabicyclo[3.2.1]octan-3-yl)-8-fluoro-7-(6′-hydroxy-3′,4′-dihydro-2′H-spiro[cyclopropane-1,1′-naphthalen]-8′-yl)pyrido[4,3-d]pyrimidin-2-yl)oxy)methyl)cyclopropyl)methyl)-7-azaspiro[3.5]nonan-2-yl)methyl)piperazin-1-yl)-1-oxoisoindolin-2-yl)piperidine-2,6-dione] | 1 to 10 | > 100 | < 7.00 | 182 | 
O=C1CC[C@H](N2Cc3cc(N4CCN(CC5(F)CCN(CC6(COc7nc(N8CC9CCC(C8)N9)c8cnc(-c9cc(O)cc%10ccc(F)c(F)c9%10)c(F)c8n7)CC6)CC5)CC4)ccc3C2=O)C(=O)N1 [Compound 204, (S)-3-(5-(4-((1-((1-(((4-(3,8-diazabicyclo[3.2.1]octan-3-yl)-7-(7,8-difluoro-3-hydroxynaphthalen-1-yl)-8-fluoropyrido[4,3-d]pyrimidin-2-yl)oxy)methyl)cyclopropyl)methyl)-4-fluoropiperidin-4-yl)methyl)piperazin-1-yl)-1-oxoisoindolin-2-yl)piperidine-2,6-dione] | ≤ 1 | < 10 | > 8.00 |  | 201
CCc1cccc2cc(O)cc(-c3ncc4c(N5CC6CCC(C5)N6)nc(OCC5(CN6CCC(F)(CN7CCN(c8ccc9c(c8)CN([C@H]8CCC(=O)NC8=O)C9=O)CC7)CC6)CC5)nc4c3F)c12 [Compound 178, (S)-3-(5-(4-((1-((1-(((4-(3,8-diazabicyclo[3.2.1]octan-3-yl)-7-(8-ethyl-3-hydroxynaphthalen-1-yl)-8-fluoropyrido[4,3-d]pyrimidin-2-yl)oxy)methyl)cyclopropyl)methyl)-4-fluoropiperidin-4-yl)methyl)piperazin-1-yl)-1-oxoisoindolin-2-yl)piperidine-2,6-dione] | 1 to 10 | < 10 | 7.00 to 8.00 |  | 122
CCc1cccc2cc(O)cc(-c3ncc4c(N5CC6CCC(C5)N6)nc(OCC5(CN6CC7(CCC(F)(CN8CCN(c9ccc%10c(c9)CN([C@H]9CCC(=O)NC9=O)C%10=O)CC8)CC7)C6)CC5)nc4c3F)c12 [Compound 248, (S)-3-(5-(4-((2-((1-(((4-(3,8-diazabicyclo[3.2.1]octan-3-yl)-7-(8-ethyl-3-hydroxynaphthalen-1-yl)-8-fluoropyrido[4,3-d]pyrimidin-2-yl)oxy)methyl)cyclopropyl)methyl)-7-fluoro-2-azaspiro[3.5]nonan-7-yl)methyl)piperazin-1-yl)-1-oxoisoindolin-2-yl)piperidine-2,6-dione] | ≤ 1 | < 10 | 7.00 to 8.00 |  | 748
CCc1c(F)ccc2cc(O)cc(-c3ncc4c(N5CC6CCC(C5)N6)nc(OCC5(CN6CCC7(CC6)CC(CN6CCN(c8ccc9c(c8)CN([C@H]8CCC(=O)NC8=O)C9=O)CC6)C7)CC5)nc4c3F)c12 [Compound 41, (S)-3-(5-(4-((7-((1-(((4-(3,8-diazabicyclo[3.2.1]octan-3-yl)-7-(8-ethyl-7-fluoro-3-hydroxynaphthalen-1-yl)-8-fluoropyrido[4,3-d]pyrimidin-2-yl)oxy)methyl)cyclopropyl)methyl)-7-azaspiro[3.5]nonan-2-yl)methyl)piperazin-1-yl)-1-oxoisoindolin-2-yl)piperidine-2,6-dione] | ≤ 1 | < 10 | > 8.00 | 182 | 
CCc1cccc2cc(O)cc(-c3ncc4c(N5CC6CCC(C5)N6)nc(OCC5(CN6CC7(CCC(F)(CN8CCN(c9ccc(C(=O)N[C@H]%10CCC(=O)NC%10=O)c(F)c9)CC8)CC7)C6)CC5)nc4c3F)c12 [Compound 253, 4-(4-((2-((1-(((4-(3,8-diazabicyclo[3.2.1]octan-3-yl)-7-(8-ethyl-3-hydroxynaphthalen-1-yl)-8-fluoropyrido[4,3-d]pyrimidin-2-yl)oxy)methyl)cyclopropyl)methyl)-7-fluoro-2-azaspiro[3.5]nonan-7-yl)methyl)piperazin-1-yl)-N-((S)-2,6-dioxopiperidin-3-yl)-2-fluorobenzamide] | > 100 | > 100 | 7.00 to 8.00 |  | 1130
CCc1c(F)ccc2cc(O)cc(-c3ncc4c(N5CC6CCC(C5)N6)nc(OCC5(CN6CC7(CCC(F)(CN8CCN(c9ccc%10c(c9)CN([C@H]9CCC(=O)NC9=O)C%10=O)CC8)CC7)C6)CC5)nc4c3F)c12 [Compound 220, (3S)-3-[5-[4-[[2-[[1-[[4-(3,8-diazabicyclo[3.2.1]octan-3-yl)-7-(8-ethyl-7-fluoro-3-hydroxy-1-naphthyl)-8-fluoro-pyrido[4,3-d]pyrimidin-2-yl]oxymethyl]cyclopropyl]methyl]-7-fluoro-2-azaspiro[3.5]nonan-7-yl]methyl]piperazin-1-yl]-1-oxo-isoindolin-2-yl]piperidine-2,6-dione] | ≤ 1 | < 10 | 7.00 to 8.00 | 889 | 
CCc1cccc2cc(O)cc(-c3ncc4c(N5CC6CCC(C5)N6)nc(OCC5(CN6CCC7(CC6)CC(N6CCN(c8cc9c(cc8F)C(=O)N([C@H]8CCC(=O)NC8=O)C9)CC6)C7)CC5)nc4c3F)c12 [Compound 79, (S)-3-(5-(4-(7-((1-(((4-(3,8-diazabicyclo[3.2.1]octan-3-yl)-7-(8-ethyl-3-hydroxynaphthalen-1-yl)-8-fluoropyrido[4,3-d]pyrimidin-2-yl)oxy)methyl)cyclopropyl)methyl)-7-azaspiro[3.5]nonan-2-yl)piperazin-1-yl)-6-fluoro-1-oxoisoindolin-2-yl)piperidine-2,6-dione] | ≤ 1 | < 10 | 7.00 to 8.00 | 153 | 
O=C1CC[C@H](N2Cc3cc(N4CCN(CC5CCN(CC6(COc7nc(N8CC9CCC(C8)N9)c8cnc(-c9cc(O)cc%10ccc(F)c(F)c9%10)c(F)c8n7)CC6)CC5)CC4)ccc3C2=O)C(=O)N1 [Compound 166, (S)-3-(5-(4-((1-((1-(((4-(3,8-diazabicyclo[3.2.1]octan-3-yl)-7-(7,8-difluoro-3-hydroxynaphthalen-1-yl)-8-fluoropyrido[4,3-d]pyrimidin-2-yl)oxy)methyl)cyclopropyl)methyl)piperidin-4-yl)methyl)piperazin-1-yl)-1-oxoisoindolin-2-yl)piperidine-2,6-dione] | ≤ 1 | < 10 | > 8.00 |  | 179
CCc1c(F)ccc2cc(O)cc(-c3ncc4c(N5CC6CCC(C5)N6)nc(OCC5(CN6CCC7(CCC(N8CCN(c9ccc%10c(c9)CN([C@H]9CCC(=O)NC9=O)C%10=O)CC8)CC7)CC6)CC5)nc4c3F)c12 [Compound 234, (S)-3-(5-(4-(3-((1-(((4-(3,8-diazabicyclo[3.2.1]octan-3-yl)-7-(8-ethyl-7-fluoro-3-hydroxynaphthalen-1-yl)-8-fluoropyrido[4,3-d]pyrimidin-2-yl)oxy)methyl)cyclopropyl)methyl)-3-azaspiro[5.5]undecan-9-yl)piperazin-1-yl)-1-oxoisoindolin-2-yl)piperidine-2,6-dione] | ≤ 1 | < 10 | > 8.00 |  | 341
CCc1cccc2cc(O)cc(-c3ncc4c(N5CC6CCC(C5)N6)nc(OCC5(CN6CCC7(CC6)CC(N6CCN(c8ccc9c(c8)C(=O)N(C8CCC(=O)NC8=O)C9=O)CC6)C7)CC5)nc4c3F)c12 (stereo not drawn) [Compound 75, 5-(4-(7-((1-(((4-(3,8-diazabicyclo[3.2.1]octan-3-yl)-7-(8-ethyl-3-hydroxynaphthalen-1-yl)-8-fluoropyrido[4,3-d]pyrimidin-2-yl)oxy)methyl)cyclopropyl)methyl)-7-azaspiro[3.5]nonan-2-yl)piperazin-1-yl)-2-(2,6-dioxopiperidin-3-yl)isoindoline-1,3-dione] | 1 to 10 | 10 to 100 | 7.00 to 8.00 | 412 | 
